Test results: patent US20150141360A1, “BIOCIDAL COMPOSITIONS” (CEBEC GROUP LTD., priority 2012, published 2015)
In brackets after ≈: the same amount, converted by molar mass.

What follows are compounds tested on Escherichia coli ATCC 25922 (assay: Preliminary evaluation of bactericidal efficacy (5 min treatment, colony counts)). Conditions: 5 min exposure to 0.5% v/v.
Assay type: cell-based
Parameters: key: TNTC=To Numerous To Count
Procedure: The compositions are suitable for use in the food and food processing industry. For rapid screening, a preliminary method allowed selection of the most efficient formulations. […] The composition of each formulation (0.5% v/v) was used blind to ensure no bias. The formulation was reviewed after each set of tests to improve the products composition and efficiency. Prototype formulations were prepared under aseptic conditions.
Typically, an overnight culture of bacteria strains were diluted 1:1000 in sterile hard water to a final density of approx 1×10^6 bacteria. A 1 ml volume of bacteria was treated for 5 minutes at room temperature with 500 μl of antimicrobial solutions. […] The treatment was ceased by the addition of 200 μl of the neutralising solution. All strains were serially diluted to 10^−5 in sterile peptone water and 100 μl were plated in duplicate on the appropriate plate and then incubated at 37° C. for 24 hours except Campylobacter jejuni and Enterococcus hirae. The appropriate controls were included in each test e.g. an unopened agar plate and a set of serially diluted, untreated bacteria. After mesophilic aerobic incubation (or mesophilic microaerophilic incubation for C. jejuni), the number of colonies was enumerated and compared to the untreated controls to determine if a Log order reduction was obtained.

| Compound | E. coli bacterial colony counts (average of two replicates), Bacterial Dilution 10^−1 | E. coli bacterial colony counts (average of two replicates), Bacterial Dilution 10^−2 | E. coli bacterial colony counts (average of two replicates), Bacterial Dilution 10^−3 | E. coli bacterial colony counts (average of two replicates), Bacterial Dilution 10^−4 | E. coli bacterial colony counts (average of two replicates), Bacterial Dilution 10^−5 | E. coli bacterial colony counts (average of two replicates), Bacterial Dilution Neat |
| --- | --- | --- | --- | --- | --- | --- |
| O=C(O)CC(O)C(=O)O (stereo not shown) [E3, MALIC ACID] | TNTC | TNTC | TNTC | TNTC | >61 | TNTC |
| O=C(O)CC(O)(CC(=O)O)C(=O)O [E4, CITRIC ACID] | TNTC | TNTC | >159 | TNTC | 10 | TNTC |
| O=C1O[C@H]([C@@H](O)CO)C(O)=C1O [E5, ASCORBIC ACID] | TNTC | TNTC | TNTC | TNTC | TNTC | TNTC |

Each compound was assayed on isolated strains from food production environments (assay: not given). Conditions: not given.
Assay type: cell-based
Source text: In the early stages of these investigations, efforts were concentrated on two zoonotic pathogens namely verocytoxigenic Escherichia coli O157 and Salmonella species, along with the recently described powdered infant formula pathogen Cronobacter species. […] Some of the genera appeared to be more susceptible compared with others, as in the case of Cronobacter. Attempts to develop tolerant phenotypes were marginally successful and where this was generated, the phenotype was unstable. […] Highly-tolerant mutant phenotypes were obtained and these are currently being studied in detail, using a dedicated technical pipeline, described above. It was decided that it would be of interest to include the food-borne zoonotic pathogen Campylobacter and to evaluate its susceptibility/tolerance to the same panel compounds. Once again, it could be shown that Campylobacter was susceptible. However, as the panel of compounds used could be described as synthetic, the availability of C-Activ-12 presented the opportunity to re-evaluate the responses of these bacteria to this natural biocide. […] In the current project proposal, this inhibitory effect will be characterised in detail, to provide a means of understanding the mode of action. […] C-Activ-12 is a novel natural biocide. The formulation ingredients are FDA GRAS approved comprising organic acids and natural fruit extracted polyphenols. The broad spectrum activity of the formulation resulted it its inclusion in a University College Dublin Government funded independent study under the FIRM (see hereunder) research program. The program studies the effectiveness of products used to manage micro-organisms/pathogens prevalent in the food sector, comparing effectiveness & testing against isolated strains. […] The Irish Department of Agriculture and Food's Food Institutional Research Measure (FIRM) is funded under the National Development Plan 2007-2013. FIRM is the primary national funding mechanism for food research in third level colleges and research institutes. FIRM is a public good competitive programme whereby multi-disciplinary teams from two or more institutions usually carry out the research projects. Research outputs are communicated to industry by a dedicated dissemination team known as RELAY. FIRM aims to develop public good technologies that will underpin a competitive, innovative and sustainable food manufacturing and marketing sector. The programme is creating a base of knowledge and expertise in generic technologies that will support a modern, consumer-focused industry and build Ireland's capacity for R&D. A key output of the FIRM is highly trained young researchers at PhD and postdoctoral level, with specialist skills particularly relevant to the Irish food sector. The following pages provide an overview of the effectiveness of CeBeC's C-Activ-12 in killing micro-organisms. Standard testing protocols were first applied by AIT CBBR under British & European Food Grade Sanitiser Standard BS EN 1276, requiring a log 5 reduction from a log 7 to a log 2. The activity of C-Activ-12 highlighted a greater than log 6 reduction from a log 8. Based on the results under BS EN 1276, UCD added the product under the FIRM study whereby pathogens were isolated from food production environments. The rationale behind this approach is that most standards rely on ATCC & NCTC cultures which are more than often easier to kill than isolates.

| Compound | MBC [µg/mL] | MBC Range [µg/mL] | MIC [µg/mL] | MIC Range [µg/mL] |
| --- | --- | --- | --- | --- |
| O=C(O)c1ccccc1 [Benzoic Acid] | 920.79 (≈ 7540 µM) | 165 to 1320 | 810.51 (≈ 6640 µM) | 247.5 to 1320 |

Same assay, conditions: 74 strains; unheaded column beside Stdev (presumably mean)

| Compound | MBC | MIC |
| --- | --- | --- |
| O=C(O)/C=C/c1ccccc1 [Cininamic Acid] | 119.40 µg/mL (≈ 806 µM) | 95.12 µg/mL (≈ 642 µM) |
| C=CCc1ccc(O)c(OC)c1 [Eugenol] | 0.99 ul/ml | 0.86 ul/ml |
| CC(C)=CCC/C(C)=C/CO [Geraniol] | 9.46 ul/ml | 8.29 ul/ml |
| Cc1ccc(C(C)C)c(O)c1 [Thymol] | 121.38 µg/mL (≈ 808 µM) | 85.73 µg/mL (≈ 571 µM) |
| O=C/C=C/c1ccccc1 [Trans-cinnaldeheyde] | 0.50 ul/ml | 0.43 ul/ml |
| CC1=CC[C@@H](C(C)(C)O)CC1 [a-Terpineol] | 2.84 ul/ml | 2.43 ul/ml |

Same assay, conditions: range over 74 strains

| Compound | MBC Range | MIC Range |
| --- | --- | --- |
| O=C(O)/C=C/c1ccccc1 [Cininamic Acid] | 23.44 to 421.88 µg/mL | 23.44 to 140.65 µg/mL |
| C=CCc1ccc(O)c(OC)c1 [Eugenol] | 0.25-2 ul/ml | 0.25-2 ul/ml |
| CC(C)=CCC/C(C)=C/CO [Geraniol] | 0.94-22.5 ul/ml | 0.94-15^ ul/ml |
| Cc1ccc(C(C)C)c(O)c1 [Thymol] | 4.92 to 315 µg/mL | 19.69-315^ ug/ml |
| O=C/C=C/c1ccccc1 [Trans-cinnaldeheyde] | 0.05-0.8 ul/ml | 0.2-0.8 ul/ml |
| CC1=CC[C@@H](C(C)(C)O)CC1 [a-Terpineol] | 0.42-7.59 ul/ml | 0.53-7.59 ul/ml |
